Source: patent US12102644B2, “Compounds and methods of promoting myelination” (Case Western Reserve University, priority 2019, dated 2024)
“Also recorded” adds a separate entry of the source. Read-outs that look alike come from different tables or passages of the source.

How the values were obtained:
[1] = test system: mouse epiblast stem cell-derived OPCs; experiment: In vitro OPC differentiation assay (percentage of MBP+ oligodendrocytes, high-content imaging); type: cell-based; conditions: for formation of MBP+ oligodendrocytes in combination with ketoconazole: co-treatment with ketoconazole 2.5 μM
Procedure: To rigorously assess effects of small molecule and genetic treatments on OPCs, all treatments were assayed in two batches of epiblast stem cell-derived OPCs, and key results were confirmed using mouse primary OPCs. OPCs were generated from two separate EpiSC lines, EpiSC5 (giving rise to OPC-5 OPCs) and 12901 (giving rise to OPC-1 OPCs). EpiSC-derived OPCs were obtained using in vitro differentiation protocols and culture conditions described previously. To ensure uniformity throughout all in vitro screening experiments, EpiSC-derived OPCs were sorted to purity by fluorescence activated cell sorting at passage five with conjugated CD 140a-APC (eBioscience, 17-1401; 1:80) and NG2-AF488 (Millipore, AB[…]; 1:100) antibodies. Sorted batches of OPCs were expanded and frozen down in aliquots. OPCs were thawed into growth conditions for one passage before use in further assays. Cultures were regularly tested and shown to be mycoplasma free. EpiSC-derived OPCs were grown and expanded in poly-ornithine (PO) and laminin-coated flasks with growth medium (DMEM/F12 supplemented with N2-MAX (R&D Systems), B-27 (ThermoFisher), GlutaMax (Gibco), FGF2 ([…], R&D systems, 233-FB-025) and PDGF-AA ([…], R&D systems, 233-AA-050) before harvesting for plating. The cells were seeded onto poly-D-[…]-well CellCarrier plates (PerkinElmer) coated with laminin (Sigma, L2020; 15 μg/ml) using multi-channel pipet. For the experiment, 800,000 cells/mL stock in differentiation medium (DMEM/F12 supplemented with N2-MAX and B-27) was prepared and stored on ice for 2 h. Then, 40,000 cells were seeded per well in differentiation medium and allowed to attach for 30 min before addition of drug. For dose-response testing of all molecules except sterols, a 1000× compound stock in dimethyl sulphoxide (DMSO) was added to assay plates with 0.1 μL solid pin multi-blot replicators (V & P Scientific; VP 409), resulting in a final primary screening concentration of 1×. Sterols were added to cells as an ethanol solution (0.2% final ethanol concentration). Positive control wells (ketoconazole, 2.5 μM) and DMSO vehicle controls were included in each assay plate. Cells were incubated under standard conditions (37° C., 5% CO2) for 3 days and fixed with 4% paraformaldehyde (PFA) in phosphate buffered saline (PBS) for 20 min. Fixed plates were washed with PBS (200 μL per well) twice, permeabilized with 0.1% Triton X-100 and blocked with 10% donkey serum (v/v) in PBS for 40 min. Then, cells were labelled with MBP antibodies (Abcam, ab7349; 1:200) for 16 h at 4° C. followed by detection with Alexa Fluor conjugated secondary antibodies (1:500) for 45 min. Nuclei were visualized by DAPI staining (Sigma; 1 μg/ml). During washing steps, PBS was added using a multi-channel pipet and aspiration was performed using Biotek EL406 washer dispenser (Biotek) equipped with a 96-well aspiration manifold. Plates were imaged on the Operetta High Content Imaging and Analysis system (PerkinElmer) and a set of 6 fields captured from each well resulting in an average of 1200 cells being scored per well. Analysis (PerkinElmer Harmony and Columbus software) began by identifying intact nuclei stained by DAPI; that is, those traced nuclei that were larger than 300 μm^2 in surface area. Each traced nucleus region was then expanded by 50% and cross-referenced with the […] (MBP) stain to identify oligodendrocyte nuclei, and from this the percentage of oligodendrocytes was calculated. In some experiments, the total process length of MBP^+ oligodendrocytes was calculated as previously described.

[2] = test system: sterol levels in OPCs (cholesterol biosynthesis pathway); experiment: GC/MS-based sterol profiling in OPCs; type: cell-based, mouse
rat CYP51 [3] = target: T1, rat CYP51 (Rattus norvegicus, UniProt Q64654); conditions: rat CYP51 enzymatic activity
T1 sequence (Q64654 1-503): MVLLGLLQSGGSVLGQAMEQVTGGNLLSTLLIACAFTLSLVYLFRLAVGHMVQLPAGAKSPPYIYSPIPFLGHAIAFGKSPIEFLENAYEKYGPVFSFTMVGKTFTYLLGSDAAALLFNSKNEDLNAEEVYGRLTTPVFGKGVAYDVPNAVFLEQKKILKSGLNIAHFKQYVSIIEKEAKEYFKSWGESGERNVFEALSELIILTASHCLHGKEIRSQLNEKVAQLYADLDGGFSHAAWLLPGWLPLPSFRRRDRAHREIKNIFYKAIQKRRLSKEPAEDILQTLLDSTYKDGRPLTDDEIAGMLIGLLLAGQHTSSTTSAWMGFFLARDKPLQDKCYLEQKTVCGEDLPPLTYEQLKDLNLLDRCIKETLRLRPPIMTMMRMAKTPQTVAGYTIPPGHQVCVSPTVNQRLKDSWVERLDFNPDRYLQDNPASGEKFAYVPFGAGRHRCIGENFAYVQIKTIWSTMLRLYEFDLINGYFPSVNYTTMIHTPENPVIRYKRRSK

EBP = target: T2, EBP (Mus musculus, UniProt P70245); experiment: EBP enzymatic assay (GC/MS); type: biochemical; conditions: small molecules 10 μM, zymostenol 25 μM, 2 h
T2 construct: active EBP was obtained from mouse microsomes; from tissue
T2 sequence (P70245 1-230): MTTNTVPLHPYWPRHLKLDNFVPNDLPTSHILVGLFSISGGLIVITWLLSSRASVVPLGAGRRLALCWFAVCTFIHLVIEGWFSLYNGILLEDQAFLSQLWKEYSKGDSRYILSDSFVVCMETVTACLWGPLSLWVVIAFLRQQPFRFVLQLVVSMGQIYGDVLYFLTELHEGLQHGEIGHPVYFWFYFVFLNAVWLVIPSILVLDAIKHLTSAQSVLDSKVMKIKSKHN

rat CYP51 [4] = target: T1, rat CYP51; experiment: biochemical
[5] = 72 h, differentiation-permissive conditions

CN1CCC[C@@H]1CCO[C@](C)(c1ccccc1)c1ccc(Cl)cc1 [clemastine, Clemastine]
formation of MBP+ oligodendrocytes in combination with ketoconazole ([1]; 72 h): did not enhance differentiation above levels seen for ketoconazole alone

C[C@]12CC[C@@H]3c4ccc(O)cc4C[C@@H](CCCCCCCCC[S+]([O-])CCCC(F)(F)C(F)(F)F)[C@H]3[C@@H]1CC[C@@H]2O (some centres unmarked) [fulvestrant, Fulvestrant]
sterol profile in OPCs at the screening dose (enzyme targeted) ([2]; 2 μM, 24 h): targeted CYP51

CC(C)=CCC[C@@H](C)[C@H]1CC[C@@]2(C)C3=C(CC[C@]12C)[C@@]1(C)CC[C@H](O)C(C)(C)[C@@H]1CC3 [lanosterol, Lanosterol]
formation of MBP+ oligodendrocytes from OPCs [1, 5]: enhanced formation of MBP^+ oligodendrocytes in a dose-responsive fashion

CC(C)CCC[C@@H](C)[C@H]1CC[C@H]2C3=C(CC[C@]12C)[C@@]1(C)CC[C@H](O)CC1=CC3 [8,9-dehydrocholesterol]
formation of MBP+ oligodendrocytes from OPCs [1, 5]: robustly enhanced oligodendrocyte formation

CC(C)CCC[C@@H](C)[C@H]1CC=C2C3=C(CC[C@@]21C)[C@@]1(C)CC[C@H](O)C(C)(C)[C@@H]1CC3 [MAS-412]
formation of MBP+ oligodendrocytes from OPCs [1, 5]: enhanced oligodendrocyte formation; also recorded: optimal efficacy and potency among all canonical cholesterol biosynthesis intermediates evaluated

CC(=O)N1CCN(c2ccc(OC[C@@H]3CO[C@](Cn4ccnc4)(c4ccc(Cl)cc4Cl)O3)cc2)CC1 (stereo in doubt) [R-trans-Ketoconazole]
inhibition of mammalian CYP51 in vitro (rat CYP51 [3]): strikingly less effective at inhibiting mammalian CYP51

C=CCN(C)CCCCCCOc1ccc(C(=O)c2ccc(Br)cc2)c(F)c1 [Ro 48-8071]
formation of MBP+ oligodendrocytes from OPCs [1, 5]: little impact | total cell number (DAPI+ nuclei) ([1]; 3 d differentiation assay): little impact | formation of MBP+ oligodendrocytes in combination with ketoconazole ([1]; 72 h): completely suppressed ketoconazole's pro-myelinating effects | reduction in lanosterol levels relative to ketoconazole alone ([2]; co-treatment ketoconazole 2.5 μM + Ro 48-8071 11 nM, 24 h): 90%

C=C(c1ccc(C(=O)O)cc1)c1cc2c(cc1C)C(C)(C)CCC2(C)C [bexarotene, Bexarotene]
accumulation of sterol intermediates in OPCs (enzyme inhibition in OPCs, e.g. EBP) ([2]; 24 h treatment): minimal effects on sterol levels

CC(C)=CCC[C@@H](C)[C@H]1CC[C@H]2C3=C(CC[C@]12C)[C@@]1(C)CC[C@H](O)C(C)(C)C1CC3 (some centres unmarked) [T-MAS]
formation of MBP+ oligodendrocytes from OPCs [1, 5]: enhanced oligodendrocyte formation

CN(C)CCOc1ccc(/C(=C(/CCCl)c2ccccc2)c2ccccc2)cc1 [toremifene, Toremifene]
formation of MBP+ oligodendrocytes from OPCs [1, 5]: enhanced MBP^+ oligodendrocyte generation over a wide dose range | accumulation of sterol intermediates in OPCs (enzyme inhibition in OPCs, e.g. EBP) ([2]; 24 h treatment): inhibited EBP

OC(Cn1cncn1)(Cn1cncn1)c1ccc(F)cc1F [fluconazole, Fluconazole]
inhibition of mammalian CYP51 in vitro (rat CYP51 [3]): did not inhibit mammalian CYP51 in vitro

OCCOCCN1CCN(C(c2ccccc2)c2ccc(Cl)cc2)CC1 (centres unmarked) [hydroxyzine, Hydroxyzine]
inhibition of EBP enzymatic activity (EBP): directly inhibiting EBP enzymatic activity

Clc1ccccc1C(c1ccccc1)(c1ccccc1)n1ccnc1 [clotrimazole, Clotrimazole]
IC50 (rat CYP51 [4]): 300 to 700 nM

Cc1cc(C)c(CNC(=O)c2cc(-c3ccc(CN4CCOCC4)cc3)cc3c2cnn3C2CCCC2)c(=O)[nH]1 [EPZ005687]
formation of MBP+ oligodendrocytes from OPCs [1, 5]: robustly enhanced oligodendrocyte formation | accumulation of sterol intermediates in OPCs (enzyme inhibition in OPCs, e.g. EBP) ([2]; 24 h treatment): uniquely caused accumulation of zymosterol and zymostenol in OPCs | inhibition of EBP enzymatic activity (EBP): directly inhibiting EBP enzymatic activity

CC(C)CCC[C@@H](C)[C@H]1CC[C@H]2C3=C(CC[C@]12C)[C@@]1(C)CC[C@H](O)C[C@@H]1CC3 [zymostenol, Zymostenol]
formation of MBP+ oligodendrocytes from OPCs [1, 5]: enhanced the formation of MBP^+ oligodendrocytes; also recorded: enhanced oligodendrocyte formation

CC(=O)N1CCN(c2ccc(OC[C@H]3CO[C@@](Cn4ccnc4)(c4ccc(Cl)cc4Cl)O3)cc2)CC1 (stereo in doubt) [S-trans-Ketoconazole]
inhibition of mammalian CYP51 in vitro (rat CYP51 [3]): strikingly less effective at inhibiting mammalian CYP51

CC(C)CCC[C@@H](C)[C@H]1CC=C2C3=C(CC[C@@]21C)[C@@]1(C)CC[C@H](O)C[C@@H]1CC3 [14-dehydrozymostenol, cholesta-8,14-dien-j-ol]
formation of MBP+ oligodendrocytes from OPCs [1, 5]: enhanced the formation of MBP^+ oligodendrocytes

CC(C)=CCC[C@@H](C)[C@H]1CC=C2C3=C(CC[C@@]21C)[C@@]1(C)CC[C@H](O)C(C)(C)[C@@H]1CC3 [FF-MAS, 4,4-dimethyl-5α-cholesta-8,14,24-trien-3β-ol]
formation of MBP+ oligodendrocytes from OPCs [1, 5]: enhanced oligodendrocyte formation; also recorded: maximally potent enhancers of oligodendrocyte formation among the 8,9-unsaturated sterols tested

CN1[C@@H]2CC[C@H]1C[C@@H](OC(c1ccccc1)c1ccccc1)C2 [benztropine, Benztropine]
formation of MBP+ oligodendrocytes in combination with ketoconazole ([1]; 72 h): did not enhance differentiation above levels seen for ketoconazole alone | accumulation of sterol intermediates in OPCs (enzyme inhibition in OPCs, e.g. EBP) ([2]; 24 h treatment): induced accumulation of zymostenol and zymosterol and decreased basal sterol levels | inhibition of EBP enzymatic activity (EBP): clear inhibition

methyl-β-cyclodextrin
formation of MBP+ oligodendrocytes from OPCs [1, 5]: had no effect on oligodendrocyte formation | cholesterol levels in OPCs ([2]; methyl β-cyclodextrin 1 mM for 30 min): reductions in cholesterol levels comparable to pathway inhibitor treatment

N[C@@H](Cc1cc(I)c(Oc2ccc(O)c(I)c2)c(I)c1)C(=O)O [liothyronine, Liothyronine]
formation of oligodendrocytes in combination with liothyronine ([1]; liothyronine 3 μM combined with sterol-modulating treatments, 72 h): additive effects on oligodendrocyte formation | accumulation of sterol intermediates in OPCs (enzyme inhibition in OPCs, e.g. EBP) [2]: minimal effects on sterol levels

CC(C)CCC[C@@H](C)[C@H]1CC[C@H]2C3=C(CC[C@]12C)[C@@]1(C)CC[C@H](O)C(C)(C)[C@@H]1CC3 [MAS-414]
formation of MBP+ oligodendrocytes from OPCs [1, 5]: enhanced oligodendrocyte formation; also recorded: optimal efficacy and potency among all canonical cholesterol biosynthesis intermediates evaluated

CC(C)CCC[C@@H](C)[C@H]1CC[C@H]2[C@@H]3CC=C4C[C@@H](O)CC[C@]4(C)[C@H]3CC[C@]12C [cholesterol, Cholesterol]
formation of MBP+ oligodendrocytes from OPCs [1, 5]: ineffective; also recorded: had no effect on OPCs

OCCOc1ccc(/C(=C(/CCCl)c2ccccc2)c2ccccc2)cc1 [ospemifine, Ospemifene]
formation of MBP+ oligodendrocytes from OPCs [1]: had no effect on OPC differentiation | accumulation of sterol intermediates in OPCs (enzyme inhibition in OPCs, e.g. EBP) [2]: did not inhibit EBP
